Results reported in the supplement of paper PMC10307832.

Columns and labels:
Test in all cases: relative viability (nuclei count vs DMSO), 5 days (fraction); higher = more cells survive
[1] = compound: C#Cc1cccc(Nc2ncnc3cc(OC)c(OCCCCCCC(=O)NO)cc23)c1 [CUDC-101] + CC(=O)Nc1cccc(-n2c(=O)n(C3CC3)c(=O)c3c(Nc4ccc(I)cc4F)n(C)c(=O)c(C)c32)c1 [Trametinib] (partner 0.02 µM)
Summary of the method: (§1)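 After 5 days of treatment, lung cancer cells in 1536-well plates were fixed and stained in a single step (final 0.05% Triton X-100, 1% formaldehyde, 1 ug/ml Hoechst) and their nuclei counted on 4× images. Treatment had been applied by pin tool the day after seeding as one drug alone or as a fixed anchor-drug dose with five library-drug doses (not always all listed) in √10 steps. Relative viability is the nuclei count of treated wells divided by that of vehicle wells, and values are medians of duplicate plates.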

[2] = compound: C1=CC=C2C(=C1)N=C(S2)C(C#N)C3=NC(=NC=C3)NCCC4=CN=CC=C4 + CC(=O)c1c(C)c2cnc(Nc3ccc(N4CCNCC4)cn3)nc2n(C2CCCC2)c1=O [Palbociclib] (partner 0.5 µM)
Summary of the method: as §1

[3] = compound: C1=CC=C2C(=C1)N=C(S2)C(C#N)C3=NC(=NC=C3)NCCC4=CN=CC=C4 + Cc1nc(NC(=O)N2CCC[C@H]2C(N)=O)sc1-c1ccnc(C(C)(C)C(F)(F)F)c1 [Alpelisib] (partner 2 µM)
Summary of the method: as §1

[4] = compound: COc1cc2/c(=N/c3ccc(Br)cc3F)nc[nH]c2cc1OCC1CCN(C)CC1 [Vandetanib] + CS(=O)(=O)CCNCc1ccc(-c2ccc3ncnc(Nc4ccc(OCc5cccc(F)c5)c(Cl)c4)c3c2)o1 [Lapatinib] (partner 2 µM)
Summary of the method: as §1

UMC-11
relative viability ([1]; first compound 0.01 µM): 0.727
relative viability ([1]; first compound 0.03162 µM): 0.761
relative viability ([1]; first compound 0.1 µM): 0.578
relative viability ([1]; first compound 0.3162 µM): 0.399
relative viability ([1]; first compound 1 µM): 0.127
relative viability ([2]; first compound 0.005 µM): 0.377
relative viability ([2]; first compound 0.01581 µM): 0.32
relative viability ([2]; first compound 0.05 µM): 0.294
relative viability ([2]; first compound 0.1581 µM): 0.346
relative viability ([2]; first compound 0.5 µM): 0.31
relative viability ([3]; first compound 0.005 µM): 0.644
relative viability ([3]; first compound 0.01581 µM): 1.12
relative viability ([3]; first compound 0.05 µM): 0.924
relative viability ([3]; first compound 0.1581 µM): 1.11
relative viability ([3]; first compound 0.5 µM): 0.78
relative viability ([4]; first compound 0.02 µM): 0.816
relative viability ([4]; first compound 0.06325 µM): 0.961
relative viability ([4]; first compound 0.2 µM): 0.664
relative viability ([4]; first compound 0.6325 µM): 0.892
relative viability ([4]; first compound 2 µM): 1.01
